Non-standard residues stand in square brackets, D forms with d. *: point of attachment. Biotin = O=C1N[C@H]2[C@H](CS[C@H]2CCCCC(=O)*)N1; Cit = NC(=O)NCCC[C@H](N)C(=O)O
Key:
IgA/G/M ACPAs = tested on: IgA/G/M ACPAs
Method: (§1) This example describes an enzyme-linked immunosorbent assay (ELISA) for detecting (e.g., measuring) the presence (or absence) or level of anti-citrullinated protein antibodies (ACPAs) in an individual's sample. As a non-limiting example, a 96-well immunoassay plate was coated with avidin (e.g., neutravidin) and the plate was blocked with 5% bovine serum albumin in phosphate buffered saline. Biotinylated synthetic citrullinated peptides of the present invention were incubated with the avidin-coated plate. […] Unbound samples were washed out and RA-associated autoantibodies directed against the immobilized citrullinated peptide were detected with an enzyme-labeled (e.g., HRP-labeled) anti-human IgA, IgG, IgM, or IgA/G/M secondary antibody.

[1] = tested on: anti-citrullinated protein antibodies (ACPAs); settings: FIG. 3 and FIG. 7; compared with the other peptides tested
Method: as §1

IgG ACPAs = assay: ACPA ELISA with anti-human IgG secondary antibody; format: binding
Method: The synthetic citrullnated peptides set forth in Example 6, which were designed from synovial proteins, were synthesized and evaluated for their ability to diagnose and/or prognose RA. […] The peptides were then tested for IgG ACPA dose-response in samples of synovial fluid taken from both healthy patients and patients with RA.

IgA ACPAs = tested on: IgA ACPAs
Method: as §1

IgM ACPAs = tested on: IgM ACPAs
Method: as §1

Biotin-GGGATRSSAVRL[Cit]SSVPGVRLLQDS-NH2 [VMT3]
sensitivity for autoantibodies of the IgA/G/M classes (in words) (IgA/G/M ACPAs): particularly high sensitivity
dose-response curve in ACPA ELISA (in words) [1]: strong dose-response curves
sensitivity for autoantibodies of the IgG class (in words) (IgG ACPAs): particularly high sensitivity

Biotin-GGGATRSSAV[Cit]LRSSVPGVRLLQDS-NH2 [VMT2]
sensitivity for autoantibodies of the IgA class (in words) (IgA ACPAs): particularly high sensitivity
sensitivity for autoantibodies of the IgM class (in words) (IgM ACPAs): particularly high sensitivity
dose-response curve in ACPA ELISA (in words) [1]: strong dose-response curves
IgG ACPA positive response (strong/moderate) (IgG ACPAs; Example 7, FIGS. 20-27): moderate

From patent publication US8519096B2, “Citrullinated peptides for diagnosing and prognosing rheumatoid arthritis” (Nestec S.A., priority 2009, dated 2013)
